± gives the expanded uncertainty stated by the source.
How the values were obtained:
[1] = 298.15 K, 101 kPa, Liquid; for speed of sound: Sing-around technique in a fixed-path interferometer
[2] = mn = molality of the nth substance listed, in mol/kg; settings: 298.15 K, 101 kPa, Liquid; for speed of sound: Sing-around technique in a fixed-path interferometer

Work on `OCCO` [1,2-ethanediol] yielded a mass density [1] of 1109.41 ± 0.69 kg/m3 and a speed of sound [1] of 1656.1 ± 1.7 m/s.
Compound `OCCO` [1,2-ethanediol] + O has a speed of sound ([2]; m2 = 0) of 1656.1 ± 1.7 m/s, a speed of sound ([2]; m2 = 0.1028) of 1656.9 ± 1.7 m/s and a speed of sound ([2]; m2 = 0.2175) of 1657.7 ± 1.7 m/s. For the same compound, the speed of sound ([2]; m2 = 0.3155) was 1658.6 ± 1.7 m/s, the speed of sound ([2]; m2 = 0.3759) was 1658.7 ± 1.7 m/s and the speed of sound ([2]; m2 = 0.7031) was 1660.5 ± 1.7 m/s. The speed of sound ([2]; m2 = 0.808) was 1661.4 ± 1.7 m/s, the speed of sound ([2]; m2 = 0.9282) was 1661.8 ± 1.7 m/s and the speed of sound ([2]; m2 = 1.035) was 1662.3 ± 1.7 m/s. The speed of sound ([2]; m2 = 1.132) was 1662.7 ± 1.7 m/s, the mass density ([2]; m2 = 0) was 1109.41 ± 0.69 kg/m3 and the mass density ([2]; m2 = 0.1028) was 1109.35 ± 0.69 kg/m3. It also gave a mass density ([2]; m2 = 0.2175) of 1109.25 ± 0.69 kg/m3, a mass density ([2]; m2 = 0.3155) of 1109.22 ± 0.69 kg/m3 and a mass density ([2]; m2 = 0.3759) of 1109.06 ± 0.69 kg/m3. For the same compound, the mass density ([2]; m2 = 0.7031) was 1108.82 ± 0.68 kg/m3, the mass density ([2]; m2 = 0.808) was 1108.62 ± 0.68 kg/m3 and the mass density ([2]; m2 = 0.9282) was 1108.2 ± 0.68 kg/m3. It also gave a mass density ([2]; m2 = 1.035) of 1108.14 ± 0.68 kg/m3 and a mass density ([2]; m2 = 1.132) of 1108.1 ± 0.68 kg/m3.
For `CC(O)CO` (stereo not given) [1,2-propanediol], the mass density [1] was 1032.87 ± 0.23 kg/m3 and the speed of sound [1] was 1510.6 ± 1.4 m/s.
`CC(O)CO` (stereo not given) [1,2-propanediol] + O showed a speed of sound ([2]; m2 = 0) of 1510.6 ± 1.4 m/s, a speed of sound ([2]; m2 = 0.2187) of 1512.9 ± 1.4 m/s and a speed of sound ([2]; m2 = 0.5592) of 1516.4 ± 1.4 m/s. The speed of sound ([2]; m2 = 0.6141) was 1516.5 ± 1.4 m/s, the speed of sound ([2]; m2 = 0.7341) was 1517.5 ± 1.4 m/s and the speed of sound ([2]; m2 = 0.8421) was 1519.4 ± 1.4 m/s. For the same compound, the speed of sound ([2]; m2 = 0.9215) was 1519.9 ± 1.4 m/s, the speed of sound ([2]; m2 = 1.023) was 1521.5 ± 1.4 m/s and the mass density ([2]; m2 = 0) was 1032.87 ± 0.23 kg/m3. For the same compound, the mass density ([2]; m2 = 0.2187) was 1033.12 ± 0.23 kg/m3, the mass density ([2]; m2 = 0.5592) was 1033.53 ± 0.24 kg/m3 and the mass density ([2]; m2 = 0.6141) was 1033.58 ± 0.24 kg/m3. The mass density ([2]; m2 = 0.7341) was 1033.67 ± 0.24 kg/m3, the mass density ([2]; m2 = 0.8421) was 1033.73 ± 0.24 kg/m3 and the mass density ([2]; m2 = 0.9215) was 1033.86 ± 0.24 kg/m3. The mass density ([2]; m2 = 1.023) was 1033.94 ± 0.24 kg/m3.
Compound `CC1COC(=O)O1` (stereo not given) [4-methyl-1,3-dioxolan-2-one] has a mass density [1] of 1198.64 ± 0.94 kg/m3 and a speed of sound [1] of 1443.4 ± 1.6 m/s.
`CC1COC(=O)O1` (stereo not given) [4-methyl-1,3-dioxolan-2-one] + O gave a speed of sound ([2]; m2 = 0) of 1443.4 ± 1.6 m/s, a speed of sound ([2]; m2 = 0.2538) of 1444.9 ± 1.6 m/s and a speed of sound ([2]; m2 = 0.2969) of 1445.2 ± 1.6 m/s. It also gave a speed of sound ([2]; m2 = 0.3438) of 1445.4 ± 1.6 m/s, a speed of sound ([2]; m2 = 0.3895) of 1445.6 ± 1.6 m/s and a speed of sound ([2]; m2 = 0.4879) of 1446 ± 1.6 m/s. For the same compound, the speed of sound ([2]; m2 = 0.5765) was 1446.6 ± 1.6 m/s, the speed of sound ([2]; m2 = 0.6743) was 1447.2 ± 1.6 m/s and the speed of sound ([2]; m2 = 0.7678) was 1447.6 ± 1.6 m/s. For the same compound, the mass density ([2]; m2 = 0) was 1198.64 ± 0.94 kg/m3, the mass density ([2]; m2 = 0.2538) was 1197.46 ± 0.93 kg/m3 and the mass density ([2]; m2 = 0.2969) was 1197.24 ± 0.93 kg/m3. It also gave a mass density ([2]; m2 = 0.3438) of 1196.97 ± 0.93 kg/m3, a mass density ([2]; m2 = 0.3895) of 1196.74 ± 0.93 kg/m3 and a mass density ([2]; m2 = 0.4879) of 1196.22 ± 0.93 kg/m3. For the same compound, the mass density ([2]; m2 = 0.5765) was 1195.77 ± 0.93 kg/m3, the mass density ([2]; m2 = 0.6743) was 1195.27 ± 0.93 kg/m3 and the mass density ([2]; m2 = 0.7678) was 1194.8 ± 0.92 kg/m3.

Reference: the NIST ThermoML archive (doi:10.1016/j.jct.2007.05.010)
